Laboratory results from article PMC10432564, “Pharmacological perturbation of the phase-separating protein SMNDC1” (Nature Communications, 2023).

Legend:
[1] = system: SMNDC1-GFP intron 2-3, SRRM2-RFP intron 9-10, αTC1-clone; test: Fluorescence recovery after photobleaching (FRAP); format: cell-based, mouse; details: 50 µM, 15-45 min
Method: For FRAP experiments, cells harboring intron-tags in SMNDC1 and SRRM2 were seeded 24 h before imaging on a Zeiss LSM 980 microscope. 15 min before imaging, medium was changed to medium without phenol red containing DRAQ5^TM 1:1000 to reduce autofluorescence and to mark nuclei. If cells were treated with compounds, these were added in the same step. After identifying a suitable cell, bleach and reference regions were defined. After taking one reference image, the bleach region was bleached 15 times for 5 milliseconds with 100% laser power at 488 nm for GFP and with 20% laser power at 546 nm for RFP. After bleaching, a new image was taken approximately every 3 s until 150 s after bleaching. Fluorescence intensities were quantified in the bleach and reference regions for every image and normalized to the intensity before bleaching.

[2] = target: SMN Tudor domain (Homo sapiens, UniProt Q16637); test: AlphaScreen, SMN Tudor domain / sDMA-peptide interaction
Method: To establish an AlphaScreen[50], we coupled donor beads to purified SMNDC1’s (or SMN’s) Tudor domain via a His-Tag and acceptor beads to a biotinylated peptide corresponding to the C-terminal region of the Small nuclear ribonucleoprotein Sm D3 containing four sDMAs (Fig. 4a). […] To identify ideal concentrations for screening, we performed a cross-titration of Tudor domains and binding peptides (Supplementary Fig. 3b).
The AlphaScreen was conducted in 20 mM sodium phosphate pH 6.5, 50 mM NaCl, Tween 0.01%, BSA 0.1%. Protein concentration was optimized for each batch of purified protein. Optimal concentration was chosen at the lowest concentration with ~80% of maximum signal. […] In the first step, 10 µl of the protein solution containing either SMNDC1’s or SMN’s Tudor domain coupled to a 6xHis-Tag were distributed to 384-well plates pre-spotted with compounds and controls, shaken and incubated for 30 min at RT. Afterwards, 10 µl of peptide solution was added to each well and incubated for 1 h at RT. Finally, 5 µl of a solution containing both Streptavidin Donor and nickel chelate (Ni-NTA) Acceptor beads was added and again incubated for 1 h at RT.

[3] = Solubility in aqueous, buffered solution for NMR; format: physicochemical
Method: All NMR acquisition was performed in 3 mm tubes at 25 °C. […] All titration measurements were performed in 20 mM sodium phosphate buffer pH 6.5, 50 mM NaCl, 4 mM dithiothreitol and 10% (v/v) D2O as deuterium lock. Aqueous, buffered inhibitor stock solutions of maximal 20 mM concentration were prepared and carefully adjusted to pH 6.5. Inhibitor concentration was measured by addition of 100 µM DSS, peak integration and calculating with C=I⋅NDSS⋅CDSS/IDSS⋅N where C, I, N and CDSS, IDSS, NDSS is the concentration, peak intensity, and number of protons of inhibitor and DSS, respectively.

SMN Tudor domain, sequence (Q16637 84-147): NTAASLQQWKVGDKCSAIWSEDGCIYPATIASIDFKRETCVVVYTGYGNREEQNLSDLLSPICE

Compound: CN(C)S(=O)(=O)c1ccc(C(=O)Nc2nc(-c3ccccn3)cs2)cc1 [compound 1]
- recovery after photobleaching of SMNDC1 and SRRM2 [1]: lower recovery after photobleaching
- IC50 [2]: 880 nM
- solubility [3]: insufficient solubility
